The values that follow come from article PMC2805240 (Journal of chemical information and modeling, 2009).

The target of series [1] is anthrax toxin lethal factor (Bacillus anthracis, UniProt P15917). The experiment in a line: biochemical.
The test system of another series is LF. As to conditions: read-out: IC50 in a LF enzyme assay; cited from earlier work.
A further series deals with macrophage. Conditions: cited from earlier work.

The structures appear in SMILES notation.

anthrax toxin lethal factor, sequence (P15917 34-809 limits assumed): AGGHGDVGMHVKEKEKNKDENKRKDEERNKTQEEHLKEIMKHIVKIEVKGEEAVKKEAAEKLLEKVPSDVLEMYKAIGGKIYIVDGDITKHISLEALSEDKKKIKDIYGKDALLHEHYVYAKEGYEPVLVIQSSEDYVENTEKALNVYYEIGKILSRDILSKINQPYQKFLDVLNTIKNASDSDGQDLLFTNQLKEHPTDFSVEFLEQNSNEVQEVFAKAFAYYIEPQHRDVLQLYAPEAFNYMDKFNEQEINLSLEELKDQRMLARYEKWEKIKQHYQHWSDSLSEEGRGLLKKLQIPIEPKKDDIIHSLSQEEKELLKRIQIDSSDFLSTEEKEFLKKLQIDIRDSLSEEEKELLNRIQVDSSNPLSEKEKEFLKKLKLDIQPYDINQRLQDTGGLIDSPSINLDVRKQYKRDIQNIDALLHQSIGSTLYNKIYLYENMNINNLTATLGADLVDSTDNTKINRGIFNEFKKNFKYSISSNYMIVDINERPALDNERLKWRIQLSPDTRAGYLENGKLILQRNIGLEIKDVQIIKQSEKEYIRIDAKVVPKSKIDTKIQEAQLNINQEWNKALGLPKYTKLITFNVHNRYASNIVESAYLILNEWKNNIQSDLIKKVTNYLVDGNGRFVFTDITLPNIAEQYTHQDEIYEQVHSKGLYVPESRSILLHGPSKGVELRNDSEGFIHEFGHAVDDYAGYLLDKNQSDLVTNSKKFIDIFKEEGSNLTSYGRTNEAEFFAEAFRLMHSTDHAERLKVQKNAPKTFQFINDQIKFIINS

Broadly, the IC50 is the concentration that gives 50% inhibition. Regarding `CNC(=O)[C@H](Cc1c[nH]c2ccccc12)NC(=O)[C@@H](CC(=O)NO)CC(C)C` [GM6001/M364205, ilomastat], half-maximal inhibition in series [1] (IC50) was put at 10.2 ± 0.72 µM. `Cc1cc(S(=O)(=O)N[C@@H](C(=O)NO)C2CCOCC2)ccc1F` [compound 40, (2R)-2-[(4-fluoro-3-methylphenyl)sulfonylamino]-N-hydroxy-2-(tetrahydro-2H-pyran-4-yl)acetamide]: the IC50 in the series on LF is 0.054 µM; in the series with macrophage, 0.21 µM. In the case of `CCN(Cc1ccccc1)Cc1cc(Cl)ccc1O` [compound 5421384, 2-[(benzyl(ethyl)amino)methyl]-4-chlorophenol], it took 67.5 ± 2 µM to reach half-maximal inhibition in series [1] (IC50). With `CCN(Cc1ccccc1)Cc1cc(I)cc(I)c1O` [compound 5426202, 2-[(benzyl(ethyl)amino)methyl]-4,6-diiodophenol], the IC50 in series [1] was 49.5 ± 1.5 µM. Consider `CCN(Cc1ccccc1)Cc1cc(Br)ccc1O` [compound 5428736, 2-[(benzyl(ethyl)amino)methyl]-4-bromophenol], for which the IC50 in series [1] was 73.9 ± 4.5 µM.
